The results in this text go back to patent publication US20240165250A1, “Bifunctional Folate Receptor Binding Compounds” (Lycia Therapeutics, Inc., priority 2021, published 2024).

Assay [1] concerns the target T1, TNFα trimer (Homo sapiens, UniProt P01375).
T1 construct: Ligand MW (Da) 53729.8; fused on or other part: Three copies of soluble TNF-alpha joined by linkers into one polypeptide; The protein is biotinylated and captured on immobilised streptavidin
Kind of assay: SPR binding kinetics of compounds to TNFα trimer (single-cycle kinetics). The settings on record: for kon: read-out: ka. Here is the method: Streptavidin 100 μg/mL Streptavidin (Invitrogen Cat #:434302) diluted in 10 mM sodium acetate, pH 4.5) was immobilized to both the reference and active surfaces as described in Example 51. The surfaces were conditioned with three injections of running Buffer (10 mM HEPES, 150 mM NaCl, 0.05% T20, pH 7.5, 2% DMSO) at a flow rate of 10 μL/min, Contact time: 60 s. Flow rate: 10 μL/min. The active surface was treated with biotinylated linked TNFα timer 20 μg/mL diluted in running buffer at a flow rate of 5 μL/min contact time: 600 s, yielding a final response of ˜3000 RU. Example compounds were then serially diluted 1:1 in running buffer (10 mM HEPES, 150 mM NaCl, 0.05% T20, pH 7.5, 2% DMSO) from 30 uM to 937.5 nM and flowed over the active and reference surfaces from lowest concentration to greatest concentration in the single-cycle kinetics format, and then allowed to dissociate in running buffer for 7200 s, at 30 μL/min. Sensorgrams were solvent corrected, double-referenced, and the data fitted and analyzed in Biacore Insight Evaluation Software Version 3.0.11.15423.

Assay [2] concerns the target T2, TNFα (Homo sapiens, UniProt P01375+P14207).
T2 construct: made in house
Kind of assay: Compound mediated degradation of TNFα in THP-1 cells (pulse-chase, TNFα-biotin blot). In kind it is cell-based. Conditions: PMA differentiated THP-1 cells, compound 10 μM, FIG. 5. Here is the method: To measure degradation of internalized TNFα, a pulse-chase experiment was performed whereby cells were treated with +/− example compounds and/or +/− protease inhibitors and incubated for 1 hr in media containing TNFα-biotin to allow uptake and then washed and incubated 90 minutes in fresh media without TNFα to allow degradation. Samples were collected after the pulse phase (60 min) and chase phase (90 min) to measure uptake and degradation, respectively.
THP-1 cells were seeded at 100,000 cells per well of 12 well plate with 1 mL RPMI+10% w/w FBS+1× penicillin/streptomycin and differentiated using 20 ng/mL phorbol myristate acetate (Sigma-Aldrich #P8139) for 72 hrs. After 72 hrs media was replaced with 1 ml RPMI+10% v/v FBS+1× penicillin/streptomycin and TNFα-biotin (AcroBiosystems #50-201-9879) was added to 12.5 nM final concentration. Where noted example compound was added at 10 μM final concentration and protease inhibitors were added at 100 ug/ml final concentration for leupeptin (Sigma-Aldrich #L2884) or 1 μg/ml final concentration for pepstatin A (Sigma-Aldrich #BP26715). […] Relative quantification of bands was performed using the ImageLab software (BioRad) with endogenously biotinylated proteins serving as endogenous controls. […]

The target of assay [3] is T2, TNFα. The assay is described as follows: Compound mediated depletion of HiBiT-TNFα from the medium of THP-1 cells. The assay is classed as cell-based. The settings on record: compound 10 μM, FIG. 6. From the text:
An in-house recombinantly expressed and purified N-terminal fusion of HiBiT with TNFα was used to measure example compound-stimulated depletion from the media. HiBiT and largeBiT are split nanoluciferase polypeptides that result in complementation of luciferase activity in the presence of both polypeptides. The level of HiBit-TNFα in the media over time can be measure by sampling the media and mixing with the Nano-Glo HiBiT Extracellular Detection Reagent (Promega Corporation) containing the largeBiT polypeptide and nanoluciferase substrate.
THP-1 cells were seeded at 100,000 cells per well of 12 well plate with 1 mL RPMI+10% w/w FBS+1× penicillin/streptomycin and differentiated using 20 ng/mL phorbol myristate acetate (Sigma-Aldrich #P8139) for 72 hrs. After 72 hrs the growth medium was replaced with 1 ml RPMI+10% v/v FBS+1× penicillin/streptomycin containing 12.5 nM HiBit-TNFα. Where noted example compound was added at 10 μM final concentration. The medium was sampled (50 μl) at 0, 24, 48 and 96 hr and luciferase activity was measured using the Nano-Glo HiBiT Extracellular Detection Reagent.
In general terms: The HiBiT peptide binds its large partner to form an active luciferase.

Assay [4] has as its target T2, TNFα. Kind of assay: Compound mediated uptake of TNFα-pHrodo in THP-1 cells (flow cytometry). In kind it is cell-based. Conditions: 125 nM-20 μM, 24 hrs, FIG. 4. The procedure:
THP-1 cells, a monocytic leukemia cell line that endogenously express folate receptor beta, were used as a model system to measure example compound stimulated uptake of in-house produced TNFα conjugated to the pH sensitive fluorescent dye pHrodo green (ThermoFisher Scientific #P35369).
THP-1 cells were maintained in RPMI (Gibco #61870143) with 10% v/v FBS (VWR #89510-188) with 2 mM L-alanyl-L-glutamine dipeptide, 100 units/ml penicillin and 100 ug/ml streptomycin (Gibco #15140148). Cells were pelleted, resuspended in folate-free RPMI (Gibco #27016021) and seeded at 50,000 cells per well of a 96 well plate. Example compound was added to each well as a log 2 dilution series ranging from 20 μM to 125 nM final concentration. Cells were incubated for 24 hrs and washed/resuspended in phosphate buffered saline (pH 7.4) with 1% w/v BSA. Uptake was measured using a Novocyte Advanteon Flow Cytometer (Agilent Technologies) with the […] and FITC detection configuration.
(A flow cytometer gives signals particle by particle.)

Assay [5] has as its target T3, FOLR2 (Homo sapiens, UniProt P14207).
T3 construct: purchased Acro Biosystems FO2-H5223-100 μg
The assay is described as follows: SPR binding kinetics of compounds to folate receptor (FOLR2). Conditions: immobilized FOLR2, compound 3.125-100 nM. Here is the method:
A Biacore 8K+ was used to measure the association and dissociation rates of example compounds to FOLR2 (Acro Biosystems, Cat: FO2-H5223-100 μg). Briefly, FOLR2 was reconstituted according to the manufacture's instructions to 200 μg/mL. Both the active and reference surfaces of a Cytiva CM5 Series S Sensor Chip were activated with a 1:1 mixture of 400 mM EDC and 100 mM NHS for 420 s at 10 μL/min. 25 μg/mL FOLR2 diluted in Sodium Acetate pH 5.5 was injected on the active channel (Flow Cell 2) for 420 s at 10p/min. Both the reference and active surfaces were then capped with 1M ethanolamine, pH 8.5 for 420 s, achieving an immobilization level of ˜4200 RU. Example compounds were serially diluted 1:1 in running buffer (10 mM HEPES, 150 mM NaCl, 0.05% T20, pH 7.5, 2% DMSO) from 100 nM to 3.125 nM and flowed over the active and reference surfaces for 120 s, and then allowed to dissociate in running buffer for 600 s, at 30 uL/min. The FOLR2 immobilized active surface and the reference surface were regenerated with a 30 s pulse of Sodium Acetate pH 5.5 at 30 μL/min. Sensorgrams were solvent corrected, double-referenced, and the data fitted and analyzed in Biacore Insight Evaluation Software Version 3.0.11.15423.
FIG. 1 illustrates the SPR sensorgrams for various concentrations of compound I-21 (3.125 nM to 100 nM) to folate receptor 2 (FOLR2), illustrating 1:1 binding.
For orientation: In SPR one partner is held on a chip, and binding of the other changes the refractive index at the surface.

[6] abbreviates: SPR single cycle kinetics, immobilized TNFα trimer.
Setting [7] is: SPR single cycle kinetics, immobilized TNFα trimer, compound 937.5 nM-30 uM.

Read-outs that look alike come from different tables or passages of the source.

T1 sequence (P01375 88-233 limits assumed): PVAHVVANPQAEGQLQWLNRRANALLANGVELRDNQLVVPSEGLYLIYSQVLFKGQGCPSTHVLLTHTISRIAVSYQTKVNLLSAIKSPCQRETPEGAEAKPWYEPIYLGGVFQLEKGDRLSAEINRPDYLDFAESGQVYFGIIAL
T2 sequence (P01375 77-233 limits assumed, species assumed): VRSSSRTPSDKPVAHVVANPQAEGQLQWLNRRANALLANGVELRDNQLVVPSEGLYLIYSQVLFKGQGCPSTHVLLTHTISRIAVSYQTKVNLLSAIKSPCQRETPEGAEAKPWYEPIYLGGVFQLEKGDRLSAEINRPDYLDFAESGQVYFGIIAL
T2 sequence (P14207 17-230 limits assumed, species assumed): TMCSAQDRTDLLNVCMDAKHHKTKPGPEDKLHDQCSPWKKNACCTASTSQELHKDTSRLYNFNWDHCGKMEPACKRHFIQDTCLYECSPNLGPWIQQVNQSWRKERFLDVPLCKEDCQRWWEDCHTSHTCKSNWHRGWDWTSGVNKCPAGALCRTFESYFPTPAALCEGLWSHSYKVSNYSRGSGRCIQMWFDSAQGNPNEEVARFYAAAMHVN
T3 sequence (P14207 17-230): as the sequence (P14207 17-230 limits assumed, species assumed) above

One may read the Kd as the free concentration of one partner at which half of the binding sites on the other are occupied at equilibrium, for simple one-to-one binding. Lower therefore signals higher affinity. As to `Nc1nc(O)c2nc(CNc3ccc(C(=O)N[C@@H](CCC(=O)NCCOCCOCCOCCOCc4cn(CCCCCOc5ccc(-c6ccc7nc(COc8cccc(N9CCCC9=O)c8)n(Cc8ccccc8OC(F)F)c7c6)cn5)nn4)C(=O)O)cc3)cnc2n1` [Compound I-25, (S)-18-(4-(((2-amino-4-hydroxypteridin-6-yl)methyl)amino)benzamido)-1-(1-(5-((5-(1-(2-(difluoromethoxy)benzyl)-2-((3-(2-oxopyrrolidin-1-yl)phenoxy)methyl)-1H-benzo[d]imidazol-6-yl)pyridin-2-yl)oxy)pentyl)-1H-1,2,3-triazol-4-yl)-15-oxo-2,5,8,11-tetraoxa-14-azanonadecan-19-oic acid], the Kd in assay [1] (setting [6]) came to 4.18 nM. Further, the kon in assay [1] (setting [7]) is 874 M⁻¹ s⁻¹.
As for `Cc1nc2cc(F)c(-c3cnc(OCCCCCn4cc(COCCOCCOCCOCCNC(=O)CC[C@H](NC(=O)c5ccc(NCc6cnc7nc(N)nc(O)c7n6)cc5)C(=O)O)nn4)nc3)nc2c(N[C@H](C)c2cc(C#N)ccc2F)c1Cl` [Compound I-17, (S)-18-(4-(((2-amino-4-hydroxypteridin-6-yl)methyl)amino)benzamido)-1-(1-(5-((5-(7-chloro-8-(((R)-1-(5-cyano-2-fluorophenyl)ethyl)amino)-3-fluoro-6-methyl-1,5-naphthyridin-2-yl)pyrimidin-2-yl)oxy)pentyl)-1H-1,2,3-triazol-4-yl)-15-oxo-2,5,8,11-tetraoxa-14-azanonadecan-19-oic acid], in assay [2], the “degradation and rescue of TNFα” value was “mediated degradation and rescue of TNFα”. Besides, the “rate of depletion of HiBiT-TNFα from medium” value in assay [3] (first 24 hours) is recorded as “more rapid depletion of HiBiT-TNFα over the first 24 hours”. Also, the “total depletion of HiBiT-TNFα from the culture medium” value in assay [3] (sampled to 96 hr) is “greater total depletion of HiBiT-TNFα from the culture medium”. The “uptake of labelled TNFα (median fluorescence intensity of pHrodo dye)” value in assay [4] is given as “stimulated uptake of labelled TNFα in THP-1 cells in a dose-dependent manner”.
Consider `Cc1nc2cc(F)c(-c3cnc(OCCCCCn4cc(COCCOCCOCCOCCNC(=O)[C@H](CCC(=O)O)NC(=O)c5ccc(NCc6cnc7nc(N)nc(O)c7n6)cc5)nn4)nc3)nc2c(N[C@H](C)c2cc(C#N)ccc2F)c1Cl` [Compound I-21, (S)-16-(4-(((2-amino-4-hydroxypteridin-6-yl)methyl)amino)benzamido)-1-(1-(5-((5-(7-chloro-8-(((R)-1-(5-cyano-2-fluorophenyl)ethyl)amino)-3-fluoro-6-methyl-1,5-naphthyridin-2-yl)pyrimidin-2-yl)oxy)pentyl)-1H-1,2,3-triazol-4-yl)-15-oxo-2,5,8,11-tetraoxa-14-azanonadecan-19-oic acid], for which the Kd in assay [5] worked out at 0.833 nM; in assay [1] (setting [6]), 80.5 nM. The kon worked out at 5.57e+06 M⁻¹ s⁻¹ in assay [5] (read-out: ka) and 963 M⁻¹ s⁻¹ in assay [1] (setting [7]).
`Cc1nc2cc(F)c(-c3cnc(OCCCCCn4cc(COCCOCCNC(=O)CC[C@H](NC(=O)c5ccc(NCc6cnc7nc(N)nc(O)c7n6)cc5)C(=O)O)nn4)nc3)nc2c(N[C@H](C)c2cc(C#N)ccc2F)c1Cl` [Compound I-16, N2-(4-(((2-amino-4-hydroxypteridin-6-yl)methyl)amino)benzoyl)-N5-(2-(2-((1-(5-((5-(7-chloro-8-(((R)-1-(5-cyano-2-fluorophenyl)ethyl)amino)-3-fluoro-6-methyl-1,5-naphthyridin-2-yl)pyrimidin-2-yl)oxy)pentyl)-1H-1,2,3-triazol-4-yl)methoxy)ethoxy)ethyl)-L-glutamine]: in assay [1] (FIGS. 2A-2C), the “binding mode from SPR sensorgrams” value is recorded as 1:1 binding. In assay [1] (setting [6]), this molecule came in with a Kd of 50.2 nM, an Rmax of 43.7 RU and a kd of 5.81e-05 s⁻¹. The molecule further showed a Stoichiometry in assay [1] (SPR, Rmax versus expected Rmax) of 0.7. Besides, the kon in assay [1] was determined as 1160 M⁻¹ s⁻¹.
